Assay results: ChEMBL document CHEMBL1201862, “PubChem BioAssay data set” (2004)
Active and inactive are the calls of the source.

Tests used:
Aminopeptidase N = target: T1, Aminopeptidase N (Plasmodium falciparum FcB1/Columbia, UniProt O96935); assay: P. falciparum M1AAP inhibitors, biochemical, fluorogenic H-Leu-NHMec substrate, 1536-well (AID 1445); set-up: species or system Plasmodium falciparum 3D7, 3D7
T1 sequence (O96935 whole entry): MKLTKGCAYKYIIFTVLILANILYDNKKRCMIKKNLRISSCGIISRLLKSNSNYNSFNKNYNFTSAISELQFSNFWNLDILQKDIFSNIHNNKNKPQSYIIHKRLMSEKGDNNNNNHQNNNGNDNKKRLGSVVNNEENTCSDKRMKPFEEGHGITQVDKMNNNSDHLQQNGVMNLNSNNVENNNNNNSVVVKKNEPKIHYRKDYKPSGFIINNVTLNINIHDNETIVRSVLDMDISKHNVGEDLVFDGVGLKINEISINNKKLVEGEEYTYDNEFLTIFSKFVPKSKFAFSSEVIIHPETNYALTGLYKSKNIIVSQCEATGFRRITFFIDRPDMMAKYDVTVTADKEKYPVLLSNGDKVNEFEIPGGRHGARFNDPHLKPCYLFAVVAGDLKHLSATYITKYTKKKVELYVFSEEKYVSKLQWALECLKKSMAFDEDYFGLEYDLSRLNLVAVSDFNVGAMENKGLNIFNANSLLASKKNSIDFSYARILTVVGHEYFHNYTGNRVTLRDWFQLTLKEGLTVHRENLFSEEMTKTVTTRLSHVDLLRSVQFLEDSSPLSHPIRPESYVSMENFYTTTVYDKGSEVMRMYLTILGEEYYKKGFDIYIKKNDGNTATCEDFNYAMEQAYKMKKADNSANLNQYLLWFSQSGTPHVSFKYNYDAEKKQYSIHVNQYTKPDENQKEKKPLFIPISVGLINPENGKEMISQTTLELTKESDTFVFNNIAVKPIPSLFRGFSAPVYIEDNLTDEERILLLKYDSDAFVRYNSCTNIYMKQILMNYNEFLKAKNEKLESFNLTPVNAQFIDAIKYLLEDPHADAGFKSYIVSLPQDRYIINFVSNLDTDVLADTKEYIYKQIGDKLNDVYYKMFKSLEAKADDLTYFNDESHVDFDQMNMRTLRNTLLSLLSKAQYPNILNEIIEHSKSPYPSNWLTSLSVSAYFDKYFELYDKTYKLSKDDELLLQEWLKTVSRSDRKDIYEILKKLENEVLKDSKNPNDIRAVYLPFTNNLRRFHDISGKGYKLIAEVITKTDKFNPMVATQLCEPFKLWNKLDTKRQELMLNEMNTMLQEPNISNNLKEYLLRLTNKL

[1] = target: DNA dC->dU-editing enzyme APOBEC-3G (Homo sapiens, UniProt Q9HC16); type: functional;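 further: Dose-response counterscreen measuring inhibition of APOBEC3G DNA deaminase activity, run while confirming APOBEC3A inhibitors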
DNA dC->dU-editing enzyme APOBEC-3G, sequence (Q9HC16 whole entry): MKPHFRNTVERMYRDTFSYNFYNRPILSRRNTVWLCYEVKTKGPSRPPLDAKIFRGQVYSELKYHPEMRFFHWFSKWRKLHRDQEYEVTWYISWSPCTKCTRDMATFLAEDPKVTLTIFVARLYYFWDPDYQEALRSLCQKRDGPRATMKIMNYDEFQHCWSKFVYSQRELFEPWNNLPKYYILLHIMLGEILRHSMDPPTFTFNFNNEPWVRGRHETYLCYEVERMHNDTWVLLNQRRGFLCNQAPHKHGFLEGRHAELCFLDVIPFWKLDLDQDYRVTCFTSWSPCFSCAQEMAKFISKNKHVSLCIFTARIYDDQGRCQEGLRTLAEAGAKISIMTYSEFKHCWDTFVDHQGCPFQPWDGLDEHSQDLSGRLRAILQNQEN

[2] = target: DNA dC->dU-editing enzyme APOBEC-3A (Homo sapiens, UniProt P31941); assay: Dose Response confirmation of small molecule APOBEC3A DNA Deaminase Inhibitors via a fluorescence-based single-stranded DNA deaminase assay. [Related pubchem assays (depositor defined):AID493011, AID493024]; type: functional
DNA dC->dU-editing enzyme APOBEC-3A, sequence (P31941 whole entry): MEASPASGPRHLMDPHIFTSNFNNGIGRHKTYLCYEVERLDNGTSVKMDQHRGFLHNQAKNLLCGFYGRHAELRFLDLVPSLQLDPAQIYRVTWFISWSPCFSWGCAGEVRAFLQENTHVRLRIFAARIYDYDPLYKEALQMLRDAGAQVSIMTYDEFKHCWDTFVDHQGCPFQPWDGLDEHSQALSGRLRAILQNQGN

[3] = inhibitors of firefly luciferase expression or activity, dose response, H4 neuroglioma cells, luminescence (AID 1990); type: functional, cell-based
[4] = inhibitors of SNCA 5'UTR-driven reporter translation, confirmation, H4 neuroglioma cells, luminescence (AID 1988); type: functional, cell-based
[5] = cytotoxicity in KRAS-transformed pancreatic duct cells, primary screen, cell-based, fluorescence, HTS (AID 431); type: functional; details: Homo sapiens;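 further: cell line used: HPDE-C7K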
[6] = Luminescence Cell-Based Dose Response HTS to Identify Inhibitors of 5'UTR Stem-Loop Driven Prion Protein mRNA Translation in H4 Neuroglioblastoma Cells. [Related pubchem assays: 1827 (Project Summary), 1813 (Primary HTS)]; type: functional
[7] = cytotoxicity in HPDE-C7 cells, cell-based, fluorescence, HTS (AID 430); type: functional; details: Homo sapiens
[8] = cytotoxicity in HEK-293T cells, dose response, cytotoxicity control for TCR NF-kB inhibitor project, luminescence, T-cell screen hits (AID 489026); type: functional, cell-based;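 further: cells exposed to compound about 14 hours before the viability readout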
[9] = THP-1 cell cytotoxicity, dose response, cytotoxicity control for non-replicating M. tuberculosis project (AID 489025); type: functional
[10] = target: Induced myeloid leukemia cell differentiation protein Mcl-1 (Homo sapiens, UniProt Q07820); type: functional
Induced myeloid leukemia cell differentiation protein Mcl-1, sequence (Q07820 whole entry): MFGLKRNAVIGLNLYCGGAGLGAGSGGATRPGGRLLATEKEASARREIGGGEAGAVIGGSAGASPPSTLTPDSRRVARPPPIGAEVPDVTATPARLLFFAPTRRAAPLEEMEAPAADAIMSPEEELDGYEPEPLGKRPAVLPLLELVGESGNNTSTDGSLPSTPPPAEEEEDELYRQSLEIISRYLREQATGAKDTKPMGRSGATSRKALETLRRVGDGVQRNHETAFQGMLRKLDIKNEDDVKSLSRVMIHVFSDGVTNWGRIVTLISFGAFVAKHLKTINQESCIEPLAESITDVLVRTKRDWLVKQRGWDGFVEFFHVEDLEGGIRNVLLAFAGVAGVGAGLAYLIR

Leucine aminopeptidase = target: T2, Leucine aminopeptidase (Plasmodium falciparum 3D7, UniProt Q8IL11); assay: P. falciparum M17LAP inhibitors, primary screen, biochemical, fluorogenic H-Leu-NHMec substrate, 1536-well (AID 1619); type: functional
T2 sequence (Q8IL11 whole entry): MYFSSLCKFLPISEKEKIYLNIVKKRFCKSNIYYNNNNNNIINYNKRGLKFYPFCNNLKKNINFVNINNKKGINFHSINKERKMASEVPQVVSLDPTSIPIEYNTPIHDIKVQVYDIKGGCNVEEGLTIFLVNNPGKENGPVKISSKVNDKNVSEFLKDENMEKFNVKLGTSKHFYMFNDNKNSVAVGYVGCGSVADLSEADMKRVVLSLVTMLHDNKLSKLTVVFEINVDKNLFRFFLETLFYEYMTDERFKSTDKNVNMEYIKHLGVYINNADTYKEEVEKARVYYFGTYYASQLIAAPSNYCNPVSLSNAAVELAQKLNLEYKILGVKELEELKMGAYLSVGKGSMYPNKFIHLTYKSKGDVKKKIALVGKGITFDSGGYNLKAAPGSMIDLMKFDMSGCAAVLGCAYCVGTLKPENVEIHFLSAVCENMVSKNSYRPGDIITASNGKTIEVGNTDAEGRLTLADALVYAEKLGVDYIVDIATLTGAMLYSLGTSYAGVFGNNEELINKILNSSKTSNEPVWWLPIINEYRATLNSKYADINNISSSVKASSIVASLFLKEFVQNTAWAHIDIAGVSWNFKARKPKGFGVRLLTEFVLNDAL

BJ [11] = assay: cytotoxicity toward BJ-TERT fibroblasts, dose response, cell-based, RAS-independent, luminescence (AID 1933); type: functional; details: Homo sapiens
BJ [12] = assay: cells; type: functional, cell-based; details: Homo sapiens
BJ [13] = assay: cytotoxicity toward BJ-TERT-LT-ST fibroblasts, dose response, cell-based, RAS-independent, luminescence (AID 1935); type: functional; details: Homo sapiens;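 further: BJ fibroblasts immortalized with TERT plus LT and ST oncogenes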
[14] = Luminescence Cell-Based Dose Confirmation HTS to Identify Inhibitors of Platelet Dense Granule Release. [Related pubchem assays: 1663 (Primary HTS), 1678 (Summary of Project)]; type: functional
[15] = cytotoxicity toward DRD oncogenic fibroblasts, dose response, cell-based, non-viral oncogenic, luminescence (AID 1934); type: functional; details: Homo sapiens
[16] = target: Luciferin 4-monooxygenase (Photinus pyralis, UniProt P08659); assay: firefly luciferase enzyme inhibitors, dose response, biochemical, luminescence (AID 1891)
Luciferin 4-monooxygenase, sequence (P08659 whole entry): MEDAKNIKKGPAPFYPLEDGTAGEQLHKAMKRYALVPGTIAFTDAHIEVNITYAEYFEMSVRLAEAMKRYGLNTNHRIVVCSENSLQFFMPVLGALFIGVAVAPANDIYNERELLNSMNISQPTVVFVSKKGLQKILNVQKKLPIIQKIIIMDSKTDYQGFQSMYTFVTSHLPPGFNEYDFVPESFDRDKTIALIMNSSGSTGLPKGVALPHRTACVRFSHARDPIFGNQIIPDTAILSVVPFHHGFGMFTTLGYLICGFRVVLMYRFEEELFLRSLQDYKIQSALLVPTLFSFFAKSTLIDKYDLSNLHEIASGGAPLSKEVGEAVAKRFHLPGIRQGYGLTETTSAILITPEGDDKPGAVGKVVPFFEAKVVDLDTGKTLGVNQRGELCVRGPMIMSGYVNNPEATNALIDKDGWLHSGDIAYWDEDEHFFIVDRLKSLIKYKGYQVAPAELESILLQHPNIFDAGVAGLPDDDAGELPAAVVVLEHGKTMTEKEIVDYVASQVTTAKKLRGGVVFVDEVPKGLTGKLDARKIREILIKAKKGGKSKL

[17] = target: Voltage-dependent T-type calcium channel subunit alpha-1H (Homo sapiens, UniProt O95180); type: functional;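 further: channel activity triggered by adding a high calcium stimulation buffer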
Voltage-dependent T-type calcium channel subunit alpha-1H, sequence (O95180 whole entry): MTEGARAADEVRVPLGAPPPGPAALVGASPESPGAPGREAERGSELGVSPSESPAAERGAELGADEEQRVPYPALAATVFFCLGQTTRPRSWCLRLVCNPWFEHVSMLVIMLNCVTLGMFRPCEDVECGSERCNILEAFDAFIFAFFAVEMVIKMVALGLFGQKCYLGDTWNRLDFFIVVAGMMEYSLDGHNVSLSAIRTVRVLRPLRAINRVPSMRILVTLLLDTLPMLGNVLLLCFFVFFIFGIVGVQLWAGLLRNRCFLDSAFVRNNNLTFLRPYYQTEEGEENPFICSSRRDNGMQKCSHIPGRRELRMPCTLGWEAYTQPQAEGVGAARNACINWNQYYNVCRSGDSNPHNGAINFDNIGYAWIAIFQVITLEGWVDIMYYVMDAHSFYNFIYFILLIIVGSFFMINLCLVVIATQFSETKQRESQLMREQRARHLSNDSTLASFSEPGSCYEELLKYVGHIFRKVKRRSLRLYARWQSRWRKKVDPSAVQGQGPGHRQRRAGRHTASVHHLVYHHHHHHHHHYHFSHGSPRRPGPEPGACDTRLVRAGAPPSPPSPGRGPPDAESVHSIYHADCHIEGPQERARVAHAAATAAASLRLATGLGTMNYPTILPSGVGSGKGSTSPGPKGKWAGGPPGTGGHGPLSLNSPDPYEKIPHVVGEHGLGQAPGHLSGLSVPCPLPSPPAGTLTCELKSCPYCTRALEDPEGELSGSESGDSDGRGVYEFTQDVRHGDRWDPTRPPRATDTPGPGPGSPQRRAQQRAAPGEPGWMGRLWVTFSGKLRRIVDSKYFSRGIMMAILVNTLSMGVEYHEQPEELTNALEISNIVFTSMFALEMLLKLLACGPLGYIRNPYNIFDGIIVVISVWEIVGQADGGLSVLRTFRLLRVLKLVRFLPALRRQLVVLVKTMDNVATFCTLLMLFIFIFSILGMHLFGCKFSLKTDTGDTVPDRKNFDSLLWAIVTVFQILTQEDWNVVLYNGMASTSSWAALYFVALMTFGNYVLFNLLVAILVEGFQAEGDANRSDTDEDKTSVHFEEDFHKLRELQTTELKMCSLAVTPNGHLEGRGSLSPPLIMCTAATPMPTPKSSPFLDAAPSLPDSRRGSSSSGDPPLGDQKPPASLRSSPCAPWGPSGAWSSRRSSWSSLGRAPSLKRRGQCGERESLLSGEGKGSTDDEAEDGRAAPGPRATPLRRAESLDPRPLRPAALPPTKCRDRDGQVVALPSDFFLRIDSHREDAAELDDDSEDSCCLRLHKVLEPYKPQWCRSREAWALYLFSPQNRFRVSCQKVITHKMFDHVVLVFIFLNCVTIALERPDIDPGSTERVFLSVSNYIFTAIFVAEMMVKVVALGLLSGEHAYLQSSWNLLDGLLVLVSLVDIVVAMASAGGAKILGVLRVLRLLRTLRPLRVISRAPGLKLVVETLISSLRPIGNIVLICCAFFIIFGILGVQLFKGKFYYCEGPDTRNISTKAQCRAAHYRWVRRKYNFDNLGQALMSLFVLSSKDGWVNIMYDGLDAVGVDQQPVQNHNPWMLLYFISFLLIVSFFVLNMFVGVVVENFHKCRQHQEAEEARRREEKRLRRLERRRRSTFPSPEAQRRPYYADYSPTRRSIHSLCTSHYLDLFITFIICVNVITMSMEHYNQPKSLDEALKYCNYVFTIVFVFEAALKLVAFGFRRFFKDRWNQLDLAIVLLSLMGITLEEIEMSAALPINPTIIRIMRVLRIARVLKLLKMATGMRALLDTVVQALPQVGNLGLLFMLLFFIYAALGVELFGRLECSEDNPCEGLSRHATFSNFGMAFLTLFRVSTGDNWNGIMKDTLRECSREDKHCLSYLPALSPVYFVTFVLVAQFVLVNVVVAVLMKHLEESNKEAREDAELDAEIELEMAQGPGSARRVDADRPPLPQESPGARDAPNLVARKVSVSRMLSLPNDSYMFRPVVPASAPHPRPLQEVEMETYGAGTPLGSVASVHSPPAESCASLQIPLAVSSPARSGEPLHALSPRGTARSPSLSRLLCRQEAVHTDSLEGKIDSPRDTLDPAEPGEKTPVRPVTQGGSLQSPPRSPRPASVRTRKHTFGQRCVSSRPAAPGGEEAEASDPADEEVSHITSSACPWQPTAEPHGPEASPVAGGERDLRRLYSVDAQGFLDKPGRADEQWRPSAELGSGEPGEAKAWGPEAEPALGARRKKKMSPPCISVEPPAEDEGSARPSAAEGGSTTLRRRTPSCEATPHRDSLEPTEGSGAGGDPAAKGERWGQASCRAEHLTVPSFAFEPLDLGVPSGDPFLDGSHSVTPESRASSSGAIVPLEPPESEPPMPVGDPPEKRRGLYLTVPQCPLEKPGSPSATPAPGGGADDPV

[18] = target: T3, Zinc finger protein mex-5 (Caenorhabditis elegans, UniProt Q9XUB2); assay: MEX-5/TCR-2 RNA interaction inhibitors, dose response, biochemical, C. elegans, fluorescence polarization (AID 1960)
T3 sequence (Q9XUB2 whole entry): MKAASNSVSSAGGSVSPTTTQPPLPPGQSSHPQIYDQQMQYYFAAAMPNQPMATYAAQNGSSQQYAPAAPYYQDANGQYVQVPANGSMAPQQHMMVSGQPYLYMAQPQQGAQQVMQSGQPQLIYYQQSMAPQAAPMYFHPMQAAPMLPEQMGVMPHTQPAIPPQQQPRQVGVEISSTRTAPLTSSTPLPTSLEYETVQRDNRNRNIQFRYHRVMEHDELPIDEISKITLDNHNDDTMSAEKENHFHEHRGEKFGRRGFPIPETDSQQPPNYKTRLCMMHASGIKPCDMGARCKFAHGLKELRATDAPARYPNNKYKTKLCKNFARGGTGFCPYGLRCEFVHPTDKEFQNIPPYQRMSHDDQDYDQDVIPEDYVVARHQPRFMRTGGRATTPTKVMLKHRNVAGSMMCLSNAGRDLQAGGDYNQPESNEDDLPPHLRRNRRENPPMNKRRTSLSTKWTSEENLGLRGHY

[19] = target: T4, RNA-binding protein pos-1 (Caenorhabditis elegans, UniProt G5EF15); assay: inhibitors of POS-1/mex-3 RNA binding, dose response, biochemical, fluorescence polarization (AID 1964);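 further: purified POS-1 fused to maltose binding protein made in E. coli; potency of compounds blocking POS-1 binding to fluorescent RNA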
T4 sequence (G5EF15 whole entry): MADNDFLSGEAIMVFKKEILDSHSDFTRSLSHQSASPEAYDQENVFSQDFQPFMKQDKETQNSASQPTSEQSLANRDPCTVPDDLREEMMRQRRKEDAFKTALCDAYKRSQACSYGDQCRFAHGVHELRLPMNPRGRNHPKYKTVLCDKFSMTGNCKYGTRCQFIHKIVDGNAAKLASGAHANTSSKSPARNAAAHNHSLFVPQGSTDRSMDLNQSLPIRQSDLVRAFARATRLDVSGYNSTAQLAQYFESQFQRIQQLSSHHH

[20] = microbe, parasite or virus in culture; type: functional; details: Mycobacterium tuberculosis
cells = type: functional
INS1 = assay: beta cell apoptosis inhibitors, cytokine rescue, dose response, luminescence, retest (AID 449756); type: functional, cell-based; details: Rattus norvegicus;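 further: cell death triggered by IL-1 beta plus TNF-alpha plus IFN-gamma mixture; protective hits raise ATP signal compared with cytokine alone wells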
[21] = target: T5, Microphthalmia-associated transcription factor (Homo sapiens, UniProt O75030); assay: TRPM1 promoter luciferase signal decrease, dose response, MITF inhibitor project, cell-based, SK-MEL-5, cherry-picked, set 3 (AID 493073); type: functional
T5 sequence (O75030 whole entry): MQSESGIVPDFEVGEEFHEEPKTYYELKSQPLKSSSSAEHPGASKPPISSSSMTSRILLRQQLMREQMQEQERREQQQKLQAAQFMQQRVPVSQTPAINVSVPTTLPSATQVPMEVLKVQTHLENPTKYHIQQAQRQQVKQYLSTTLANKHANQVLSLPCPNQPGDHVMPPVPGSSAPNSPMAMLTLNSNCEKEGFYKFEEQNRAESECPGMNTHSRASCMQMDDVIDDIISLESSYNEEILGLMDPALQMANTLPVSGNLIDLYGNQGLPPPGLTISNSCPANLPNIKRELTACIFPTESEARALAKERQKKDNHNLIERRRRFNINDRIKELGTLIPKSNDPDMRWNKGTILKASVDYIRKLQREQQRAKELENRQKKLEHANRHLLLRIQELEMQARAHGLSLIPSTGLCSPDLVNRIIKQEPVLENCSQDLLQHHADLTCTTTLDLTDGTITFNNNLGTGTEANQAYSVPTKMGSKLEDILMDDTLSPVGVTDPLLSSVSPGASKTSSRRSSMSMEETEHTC

O=C(Nn1c(C2CCC2)nc2ccccc2c1=O)C1CCC1
IC50 (Aminopeptidase N): 48.2 µM (active)

Nc1cc(N)nc(SCC(=O)Nc2ccc(Br)cc2Cl)n1
IC50 [1]: 6.06 µM (active) | IC50 [2]: 4.42 µM (active)

COC(=O)c1[nH]c2ccc(Br)cc2c1NC(=O)CN1CCN(C2CCCCC2)CC1
EC50 [3]: 12.2 µM (active) | EC50 [4]: 7.79 µM (active) | EC50 [5]: > 20 µM (not active) | EC50 [6]: 12.9 µM (active) | EC50 [7]: > 20 µM (not active) | IC50 [8]: 22.4 µM (inactive)

Cc1ccc(CC(=O)N2CCN(c3ccc([N+](=O)[O-])cc3)CC2)cc1
CC50 [9]: > 40 µM (active)

Cc1ccc2[nH]c(C)c(/C=C3/C(=N)N4C(=NC3=O)SN=C4S(=O)(=O)C(C)C)c2c1
IC50 [10]: 11.8 µM (not active) | IC50 (Leucine aminopeptidase): 7.16 µM (active) | IC50 (Aminopeptidase N): 9.85 µM (active)

O=C(Nc1ccccc1)Nc1ccc(C(=O)N2CCCC2)cc1
EC50 (BJ [11]): 9.11 µM (active) | EC50 (BJ [12]): 9.01 µM (active) | EC50 (BJ [13]): > 150 µM (inconclusive) | EC50 [14]: 3.93 µM (active) | EC50 [15]: 7.86 µM (active) | EC50 [16]: 0.571 µM (active)

COc1cccc(CNC(=O)C2CCN(Cc3cnn(-c4ccccc4)c3-n3cccc3)CC2)c1
EC50 [17]: 9.81 µM (active)

O=C(CCl)Nc1ccccc1C(=O)NCc1ccccc1
EC50 (BJ [11]): > 150 µM (not active) | EC50 (BJ [12]): > 150 µM (not active) | EC50 (BJ [13]): > 150 µM (not active) | EC50 [15]: > 150 µM (inconclusive)

Cc1cccc(C2=NCC(=O)N(CC(=O)NCc3ccco3)c3sc4c(c32)CCCC4)c1
EC50 [17]: 4.37 µM (active)

CC(c1nc2ccccc2o1)N1C(=O)c2ccccc2C1=O (stereo unspecified)
IC50 (Aminopeptidase N): 79.5 µM (active)

CCOC(=O)c1cc(=O)n2nc(-c3ccccc3F)nc2s1
IC50 (Leucine aminopeptidase): 31.2 µM (active) | EC50 [18]: > 300 µM (not active) | EC50 [19]: > 300 µM (not active)

CCn1nc(C(=O)Nc2cccc3ccccc23)c(Cl)c1Cl
EC50 [17]: 10.5 µM (active)

CN1C(=O)/C(=C/c2cccc(Cl)c2)Sc2ccc(C(=O)N3CCCC3)cc21
CC50 [9]: 9.59 µM (active) | CC50 [20]: 25.5 µM (active) | IC50 (cells): 34.4 µM (active)

CCN(c1ccccc1)S(=O)(=O)c1ccc(C(=O)NC2CCN(Cc3ccccc3)CC2)cc1
AC50 (INS1): 2.31 µM (active) | IC50 [8]: > 80 µM (inactive)

CC/N=c1\sc2ccccc2n1CC(O)COc1ccccc1 (stereo unspecified)
EC50 [17]: 29.1 µM (active)

COC(=O)c1[nH]c2ccc(Cl)cc2c1NC(=O)CN1CCc2cc(OC)c(OC)cc2C1
EC50 [14]: > 112 µM (not active) | EC50 [16]: > 112 µM (not active) | IC50 [1]: 7.77 µM (active) | IC50 [2]: 3.18 µM (active)

Cc1ccc(-n2nnnc2Sc2nc([N+](=O)[O-])nn2C)c(C)c1
AC50 [21]: 39.6 µM (active)
